Our source for the IC50 values is patent US11008317B2, “Triazolopyridine inhibitors of myeloperoxidase and/or EPX” (priority 2016, dated 2021).

As a reminder, the IC50 is the concentration that gives 50% inhibition.

Assay [1] deals with T1, myeloperoxidase (Homo sapiens, UniProt P05164).
T1 sequence (P05164 49-745): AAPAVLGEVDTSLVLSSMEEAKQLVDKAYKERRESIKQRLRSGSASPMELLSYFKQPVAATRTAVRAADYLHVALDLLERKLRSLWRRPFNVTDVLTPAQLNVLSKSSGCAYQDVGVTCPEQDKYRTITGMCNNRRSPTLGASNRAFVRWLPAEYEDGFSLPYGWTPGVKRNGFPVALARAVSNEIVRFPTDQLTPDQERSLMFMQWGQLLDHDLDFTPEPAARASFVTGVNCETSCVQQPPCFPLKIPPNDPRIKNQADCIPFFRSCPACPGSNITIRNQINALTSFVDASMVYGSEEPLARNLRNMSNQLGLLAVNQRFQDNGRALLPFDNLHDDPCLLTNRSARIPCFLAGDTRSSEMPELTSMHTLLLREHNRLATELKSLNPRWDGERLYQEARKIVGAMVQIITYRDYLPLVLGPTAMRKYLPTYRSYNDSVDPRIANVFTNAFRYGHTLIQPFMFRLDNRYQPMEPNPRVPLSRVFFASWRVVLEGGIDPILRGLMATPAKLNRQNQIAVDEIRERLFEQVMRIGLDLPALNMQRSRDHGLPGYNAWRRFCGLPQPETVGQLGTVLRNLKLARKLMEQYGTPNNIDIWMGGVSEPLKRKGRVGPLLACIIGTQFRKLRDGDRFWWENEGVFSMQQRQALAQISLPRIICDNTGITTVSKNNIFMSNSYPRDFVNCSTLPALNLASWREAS
The assay can be described thus: MPO Peroxidation Assay (Amplex Red Assay). The format is biochemical. Conditions: potency range class, read-out: Amplex Red Assay IC50 value.

Assay [2] deals with T1, myeloperoxidase. The assay is described as follows: MPO Chlorination Assay (APF Assay). The format is biochemical. Conditions: potency range class, read-out: APF Assay IC50 value.

In the case of `Nc1cc(C(CCN[C@H]2CC[C@H](c3ccccc3)CC2)c2cccc(OC(F)F)c2)c2nn[nH]c2n1` (stereo partly drawn) [Example 166, 7-{1-[3-(difluoromethoxy)phenyl]-3-{[(trans)-4-phenylcyclohexyl]amino}propyl}-3H-[1,2,3]triazolo[4,5-b]pyridin-5-amine], the figures for the IC50 at myeloperoxidase [1] and at myeloperoxidase [2] were 101 to 999 nM and 1 to 100 nM, respectively.
In the same order, the values of `Cc1ccc(F)c(C(CCN[C@H]2CC[C@H](c3ccccc3)CC2)c2cc(N)nc3[nH]nnc23)c1` (stereo partly drawn) [Example 168, 7-[1-(2-fluoro-5-methylphenyl)-3-{[(trans)-4-phenylcyclohexyl]amino}propyl]-3H-[1,2,3]triazolo [4,5-b]pyridin-5-amine] are 1000 to 10000 nM and 1 to 100 nM.
In the same order, the values of `N#Cc1cccc(C(CCNC23CCC(c4ccccc4)(CC2)CC3)c2cc(N)nc3[nH]nnc23)c1` (stereo not drawn) [Example 171, 7-(1-(3-cyanophenyl)-3-((4-phenylbicyclo[2.2.2]octan-1-yl)amino)propyl)-3H-[1,2,3]triazolo[4,5-b]pyridin-5-amine] are 1 to 100 nM and 1 to 100 nM.
For the molecule `NCc1cccc(C(CCNC23CCC(c4ccccc4)(CC2)CC3)c2cc(N)nc3[nH]nnc23)c1` (stereo not drawn) [Example 172, 7-(1-(3-(aminomethyl)phenyl)-3-((4-phenylbicyclo[2.2.2]octan-1-yl)amino)propyl)-3H-[1,2,3]triazolo[4,5-b]pyridin-5-amine], the IC50 on myeloperoxidase [1] was in the range of 101 to 999 nM; at myeloperoxidase [2], 1 to 100 nM.
As for `COc1ccc(CNCCC(c2ccccc2)c2cc(N)nc3[nH]nnc23)cc1` (stereo not drawn) [Example 175, 7-(3-{[(4-methoxyphenyl)methyl]amino}-1-phenylpropyl)-3H-[1,2,3]triazolo [4,5-b]pyridin-5-amine], the half-maximal inhibitory concentration (IC50) at myeloperoxidase [1] and on myeloperoxidase [2] was 101 to 999 nM throughout.
With `Nc1cc(C(CCNCC2CC2c2ccc(F)cc2)c2ccccc2)c2nn[nH]c2n1` (stereo not drawn) [Example 176, 7-[3-({[2-(4-fluorophenyl)cyclopropyl]methyl}amino)-1-phenylpropyl]-3H-[1,2,3]triazolo[4,5-b]pyridin-5-amine], the concentration for half-maximal inhibition (IC50) on myeloperoxidase [1] fell in the range of 101 to 999 nM; at myeloperoxidase [2], 1 to 100 nM.
In the same order, the values of `N#CC1(c2ccccc2)CCC(NCCC(c2ccccc2)c2cc(N)nc3[nH]nnc23)CC1` (stereo not drawn) [Example 177, 4-((3-(5-amino-3H-[1,2,3]triazolo[4,5-b]pyridin-7-yl)-3-phenylpropyl)amino)-1-phenylcyclohexane-1-carbonitrile] are 101 to 999 nM and 1 to 100 nM.
As for `Nc1cc(C(CCN[C@@H]2CC[C@@H](c3ccccc3)C[C@@H]2CO)c2ccccc2)c2nn[nH]c2n1` (stereo partly drawn) [Example 180, [(1S,2R,5R)-2-[(3-{5-amino-3H-[1,2,3]triazolo[4,5-b]pyridin-7-yl}-3-phenylpropyl)amino]-5-phenylcyclohexyl] methanol], the IC50 on myeloperoxidase [1] is 101 to 999 nM; on myeloperoxidase [2], 1 to 100 nM.
On to `Nc1cc([C@H](CCNC23CCC(c4ccccc4)(CC2)C(=O)C3)c2ccccc2)c2nn[nH]c2n1` [Example 182, 4-{[(3R)-3-{5-amino-3H-[1,2,3]triazolo [4,5-b]pyridin-7-yl}-3-phenylpropyl]amino}-1-phenylbicyclo [2.2.2]octan-2-one], for which the IC50 on myeloperoxidase [1] lay in the range of 101 to 999 nM; on myeloperoxidase [2] it was 1 to 100 nM.
Regarding `Nc1cc([C@H](CCNC2CC[C@H](c3ccccc3)[C@@H](O)C2)c2ccccc2)c2nn[nH]c2n1` (stereo partly drawn) [Example 183, (1S,2R)-5-{[(3R)-3-{5-amino-3H-[1,2,3]triazolo [4,5-b]pyridin-7-yl}-3-phenylpropyl]amino}-2-phenylcyclohexan-1-ol], the IC50 on myeloperoxidase [1] lay within 1000 to 10000 nM; on myeloperoxidase [2] it was 1 to 100 nM.
Regarding `Nc1cc([C@H](CCNC2CC[C@H](c3ccccc3)[C@@H](O)C2)c2ccccc2)c2nn[nH]c2n1` (stereo partly drawn) [Example 184, (1S,2R)-5-{[(3R)-3-{5-amino-3H-[1,2,3]triazolo[4,5-b]pyridin-7-yl}-3-phenylpropyl]amino}-2-phenylcyclohexan-1-ol], the IC50 on myeloperoxidase [1] fell in the range of 101 to 999 nM; on myeloperoxidase [2] it was 1 to 100 nM.
As to `Nc1cc([C@H](CCN2CCC(O)(Cc3ccccc3)CC2)c2ccccc2)c2nn[nH]c2n1` [Example 185, 1-[(3R)-3-{5-amino-3H-[1,2,3]triazolo [4,5-b]pyridin-7-yl}-3-phenylpropyl]-4-benzylpiperidin-4-ol], the half-maximal inhibitory concentration (IC50) at myeloperoxidase [1] was in the range of 1000 to 10000 nM; on myeloperoxidase [2] it was 1 to 100 nM.
On to `Nc1cc(C(CCN2CCC(c3ccccc3)CC2)c2ccccc2)c2nn[nH]c2n1` (stereo not drawn) [Example 186, 7-[1-phenyl-3-(4-phenylpiperidin-1-yl)propyl]-3H-[1,2,3] triazolo[4,5-b] pyridin-5-amine], for which the IC50 on myeloperoxidase [1] is 1000 to 10000 nM; on myeloperoxidase [2] it was 101 to 999 nM.
In the case of `Nc1cc(C(CCN2CCC(Cc3ccccc3)CC2)c2ccccc2)c2nn[nH]c2n1` (stereo not drawn) [Example 187, 7-[3-(4-benzylpiperidin-1-yl)-1-phenylpropyl]-3H-[1,2,3]triazolo [4,5-b]pyridin-5-amine], the results for the concentration for half-maximal inhibition (IC50) at myeloperoxidase [1] and at myeloperoxidase [2] were 1000 to 10000 nM and 1 to 100 nM, respectively.
Consider `Nc1cc(C(CCNC2CCc3ccccc3C2)c2ccccc2)c2nn[nH]c2n1` (stereo not drawn) [Example 188, 7-{1-phenyl-3-[(1,2,3,4-tetrahydronaphthalen-2-yl)amino]propyl}-3H-[1,2,3]triazolo [4,5-b]pyridin-5-amine], for which the IC50 at myeloperoxidase [1] was in the range of 101 to 999 nM; at myeloperoxidase [2], 1 to 100 nM.
Consider `NC(=O)CN(CC[C@H](c1ccccc1)c1cc(N)nc2[nH]nnc12)C12CCC(c3ccccc3)(CC1)CC2` [Example 190, (R)-2-((3-(5-amino-3H-[1,2,3]triazolo[4,5-b]pyridin-7-yl)-3-phenylpropyl)(4-phenylbicyclo[2.2.2]octan-1-yl)amino)acetamide], for which the IC50 at myeloperoxidase [1] was in the range of 101 to 999 nM; at myeloperoxidase [2], 1 to 100 nM.
In the same order, the values of `CNC(=O)CN(CC[C@H](c1ccccc1)c1cc(N)nc2[nH]nnc12)C12CCC(c3ccccc3)(CC1)CC2` [Example 191, 2-{[(3R)-3-{5-amino-3H-[1,2,3]triazolo [4,5-b]pyridin-7-yl}-3-phenylpropyl]({4-phenylbicyclo[2.2.2]octan-1-yl})amino}-N-methylacetamide] are 101 to 999 nM and 1 to 100 nM.
In the same order, the values of `CN(C)C(=O)CN(CC[C@H](c1ccccc1)c1cc(N)nc2[nH]nnc12)C12CCC(c3ccccc3)(CC1)CC2` [Example 192, 2-{[(3R)-3-{5-amino-3H-[1,2,3]triazolo [4,5-b]pyridin-7-yl}-3-phenylpropyl]({4-phenylbicyclo[2.2.2]octan-1-yl})amino}-N,N-dimethylacetamide] are 1000 to 10000 nM and 1 to 100 nM.
`Nc1cc([C@H](CCN(CC2CCO2)C23CCC(c4ccccc4)(CC2)CC3)c2ccccc2)c2nn[nH]c2n1` (stereo partly drawn) [Example 193, 7-[(1R)-3-{[(oxetan-2-yl)methyl]({4-phenylbicyclo [2.2.2]octan-1-yl})amino}-1-phenylpropyl]-3H-[1,2,3]triazolo[4,5-b]pyridin-5-amine]: the IC50 at myeloperoxidase [1] and on myeloperoxidase [2] was 1 to 100 nM in each case.
For the molecule `Nc1cc([C@H](CCN(CC2CCCO2)C23CCC(c4ccccc4)(CC2)CC3)c2ccccc2)c2nn[nH]c2n1` (stereo partly drawn) [Example 195, 7-[(1R)-3-{[(oxolan-2-yl)methyl]({4-phenylbicyclo [2.2.2]octan-1-yl})amino}-1-phenylpropyl]-3H-[1,2,3]triazolo[4,5-b]pyridin-5-amine], the figures for the half-maximal inhibitory concentration (IC50) at myeloperoxidase [1] and on myeloperoxidase [2] were 101 to 999 nM and 1 to 100 nM, respectively.
In the same order, the values of `COCCN(CC[C@H](c1ccccc1)c1cc(N)nc2[nH]nnc12)C12CCC(c3ccccc3)(CC1)CC2` [Example 196, 7-[(1R)-3-[(2-methoxyethyl)({4-phenylbicyclo[2.2.2]octan-1-yl})amino]-1-phenylpropyl]-3H-[1,2,3]triazolo[4,5-b]pyridin-5-amine] are 101 to 999 nM and 1 to 100 nM.
`Nc1cc([C@H](CCN(CC(F)F)C23CCC(c4ccccc4)(CC2)CC3)c2ccccc2)c2nn[nH]c2n1` [Example 197, 7-[(1R)-3-[(2,2-difluoroethyl)({4-phenylbicyclo[2.2.2]octan-1-yl})amino]-1-phenylpropyl]-3H-[1,2,3]triazolo[4,5-b]pyridin-5-amine]: the half-inhibitory concentration (IC50) at myeloperoxidase [1] lay within 101 to 999 nM; on myeloperoxidase [2], 1 to 100 nM.
`Nc1cc([C@H](CCN(CC(O)C(F)(F)F)C23CCC(c4ccccc4)(CC2)CC3)c2ccccc2)c2nn[nH]c2n1` (stereo partly drawn) [Example 198, 3-{[(3R)-3-{5-amino-3H-[1,2,3]triazolo [4,5-b]pyridin-7-yl}-3-phenylpropyl]({4-phenylbicyclo[2.2.2]octan-1-yl})amino}-1,1,1-trifluoropropan-2-ol]: the IC50 at myeloperoxidase [1] and at myeloperoxidase [2] was 1 to 100 nM in each case.
Take `Nc1cc([C@H](CC(=O)NC23CCC(c4ccccc4)(CC2)CC3)c2ccccc2)c2nn[nH]c2n1` [Example 200, (R)-3-(5-amino-3H-[1,2,3]triazolo[4,5-b]pyridin-7-yl)-3-phenyl-N-(4-phenylbicyclo[2.2.2]octan-1-yl)propanamide]: the IC50 at myeloperoxidase [1] fell in the range of 101 to 999 nM; on myeloperoxidase [2], 1 to 100 nM.
